Measured values taken from patent US20260108476A1, “2,4 DNP and Prodrugs Thereof for Treatment of Cancer” (priority 2021, published 2026).
Entries after “also recorded” stand apart in the source; their conditions may differ.

What was measured:
[1] = test system: A2780, M248, MES-SA, MX2; assay: chromatin folding by PWS microscopy in cell line models; type: cell-based; details: for chromatin folding (structural alterations): FIG. 5A, five cell line models
Description: FIG. 5A is a graph showing structural alterations due to taxol treatment (Paclitaxel or Docetaxel) in contrast to digoxin for five cell line models (A2780, M248, MES-SA, MX2). Chemotherapeutic intervention increases while CPT agent (digoxin) decreases chromatin folding. Error bars: S.E. of 5 different cell lines. FIGS. 5B-5C are diagrams showing intercellular (FIG. 5B) and intra-network (FIG. 5C) transcriptional heterogeneity increases in cells treated with chemotherapy and decreases in cells treated with CPTs for critical biological processes: (1) cell cycle, (2) apoptosis, (3) proliferation, (4) transcription, (5) signaling, (6) differentiation, (7) glycolysis, (8) translation, (9) ion transport, (10) metabolism, (11) oxidation/reduction, (12) stress response, and (13) nucleosome assembly. Circle size: the number of genes within a network/process. Color: % change in transcription heterogeneity compared to controls. […] Digoxin reduces chromatin heterogeneity. Arrow: nuclei.
Chromatin is a complex arrangement of DNA wrapped around structural and regulatory proteins that control the expression of genes directly involved in cellular function and phenotype. Local physicochemical changes broadly affect chromatin folding and alter gene expression patterns across the genome. In a non-limiting example, decoding the chromatin folding code and understanding how different agents affect folding dynamics at the nanoscale can be helpful to develop new diagnostic tools. The resolution of optical microscopy is limited by diffraction to >200 nm. Recently, a major breakthrough has been made in the emergence of super-resolution fluorescence microscopy that enabled development of a suite of label-free nanoscale imaging technologies including Partial Wave Spectroscopic (PWS) Microscopy (see, for example, FIG. 4). The main principle of PWS is a previously overlooked phenomenon that while sub-diffractional structures are not resolvable, they are still detectable through the analysis of interference of elastically scattered light. PWS can measure the statistics of macromolecular density distribution within live or fixed cells with sensitivity in the 20-200 nm length scales, which is ideally suited for the characterization of chromatin topology. It was by using PWS (and corroborated by electron microscopy) that heterogenization of chromatin folding was discovered as one of the earliest events in carcinogenesis across multiple cancer types. Consequently, PWS was turned into a robust diagnostics technology (nanocytology) and is now in clinical trials for early screening or prognostication of lung, colon, and prostate cancers.

[2] = test system: MCF10A/NLS-DAO cells; assay: Western blot of EMT markers in MCF10A/NLS-DAO cells; type: cell-based; details: D-Ala 10 nM, activation of nuclear ROS
Method: FIG. 1B is a graph of experimental data showing the quantification of the relative levels of nuclear ROS shown as the ratio of fluorescence between the oxidized and reduced forms. FIG. 1C is a Western blot analysis showing increased EMT markers after activation of nuclear ROS with D-Ala (10 nM). FIG. 1D is a graph of experimental data showing proliferation curves comparing naïve (MCF10A) and D-Ala (10 nM) exposed MCF10A/NLS-DAO cells. Results are averages of at least 5 biologic replicates with (*) representing p<0.05.
Nuclear ROS are sufficient and required to activate EMT and metastasis of breast cancer cells. ROS levels were measured in the nuclei of different breast cancer cell lines displaying vastly different tumorigenicity and metastatic potential using novel NLS-Orp1roGFP2 biosensors. […] Also, transformation of MCF10A by v-Src promoted a marked increase in nuclear ROS levels (FIGS. 1A & B). […] To directly link nuclear ROS with aggressive cancer behavior, a nucleus-targeted system (NLS-D-amino acid oxidase, NLS-DAO) was engineered that allows to generate ROS21 directly in the nucleus and expressed it into MCF10A cells to recreate, using a non-transformed cell background, this distinctive feature of metastatic breast cancer cell lines. […]

[3] = test system: ion channels; assay: inhibition of ion channels
Description: (§1) In one embodiment, the compositions and methods of the disclosure relate to targeting oxidative stress upstream at the mitochondria that may be causative for many disorders, including, but not limited to, cancer, pain, and/or pain related conditions. There have been a variety of attempts to lower cellular stress, such as administering anti-oxidants, however these drugs have limited tissue penetration into the brain and lower ROSs after they have been formed. […] While not being bound to theory, it is postulated that DNP modulates the mitochondrial membrane potential having a significant impact at preventing ROS formation in isolated mitochondria and in the treated wildtype mice. DNP treatment 3-hours post-ischemia reduced cerebral infarct volume 40% by protecting the penumbra or “threaten tissue” and could provide similar benefits after a blast to protect inner hair cells from eminent cell death. DNP comes with the benefits of known risks as it was used 80-years ago for weight loss at high doses (˜300 mg) in over 100,000 people, however shown recently in models of neurodegeneration at very low hermetic doses to improve cognition and learning. The pharmacology, which is pleiotropic, appears to provide broad neuroprotection by lowering ROS/mTOR and increasing protective factors such as CAMP, CREB, and BDNF, could be useful for treating hearing loss.

[4] = test system: BT20 NLS Orp roGFP cells; assay: nuclear ROS by NLS-Orp1roGFP2 biosensor in BT20 cells; type: cell-based, human; details: BT20, varying concentrations of DNP, 24 hours
Method: (§2) FIGS. 3A-3C show how DNP suppresses nuclear ROS in basal BT breast cancer cell lines.
(§3) Nuclear ROS are sufficient and required to activate EMT and metastasis of breast cancer cells. ROS levels were measured in the nuclei of different breast cancer cell lines displaying vastly different tumorigenicity and metastatic potential using novel NLS-Orp1roGFP2 biosensors. […] Also, transformation of MCF10A by v-Src promoted a marked increase in nuclear ROS levels (FIGS. 1A & B). […] To directly link nuclear ROS with aggressive cancer behavior, a nucleus-targeted system (NLS-D-amino acid oxidase, NLS-DAO) was engineered that allows to generate ROS21 directly in the nucleus and expressed it into MCF10A cells to recreate, using a non-transformed cell background, this distinctive feature of metastatic breast cancer cell lines. […] Next, it was tested whether nuclear ROS contributed to treatment failure by promoting resistance to first line chemotherapeutic drugs, i.e. doxorubicin. It was also tested whether removing suppressing ROS specifically in the nucleus restored sensitivity to doxorubicin. The strategy of removing ROS from the nucleus is novel, targets a feature that seems unique to cancer cells and preserves redox signaling that happen in large part in the cytosol22. […]

[5] = test system: CYP; assay: inhibition of CYP; type: in vitro ADME
Description: as §1

[6] = 28-day toxicity studies; type: in vivo; details: low doses
Description: as §1

[7] = treatment 3-hours post-ischemia; cited from earlier work
[8] = pharmacokinetics of DNP in rats; type: in vivo
[9] = test system: BT474 NLS Orp roGFP cells; assay: nuclear ROS by NLS-Orp1roGFP2 biosensor in BT474 cells; type: cell-based, human; details: BT474, varying concentrations of DNP, 24 hours
Method: as §2, §3

[10] = test system: wildtype mice; details: chronic, extraordinarily low dose; cited from earlier work
[11] = test system: models of neurodegeneration; details: very low hermetic doses; cited from earlier work
[12] = test system: Caco-2; assay: Caco-2; type: in vitro ADME
Description: as §1

[13] = at the doses proposed
Method: The hypothesis that mitigating mitochondrial dysfunction via scavenging ROS prevents chromatin changes that promote treatment resistance is tested using DNP, a compound in development with uncoupling activity already in Phase I trials for Huntington's Disease. DNP works largely by reducing the mitochondrial electrochemical potential reducing the output of ROS.

[14] = test system: v-Src transformed luciferase-expressing MCF10A xenografts; assay: mammary xenograft of v-Src transformed luciferase-expressing MCF10A; type: in vivo, NOD/SCID mice; details: doxorubicin combined with NLS-catalase, 2 months of combined therapies, assessed at month 7
Method: (§4) FIGS. 2A-2B show heightened levels of nuclear ROS in persister chemotherapy-resistance cancer cells. FIG. 2A is a collection of images and graphs showing experimental data generated using NLS-Orp1roGFP2 biosensor to measure ROS in the nucleus of breast cancer cell lines. PY230 murine mammary tumor cells expressing NLS-Orp1roGFP2 were treated with doxorubicin (DXR, 250 nM) for the indicated amounts of times in plots of proliferation as well as fluorescence ratios indicate that persister cells have high levels of nuclear ROS and proliferate in the presence of chemotherapy mimicking clinical chemotherapy resistance where most cells initially die leaving persister ones that rapidly proliferate unabated by treatment. Induction of NLS-catalase, that removes ROS from the nucleus, resensitized persister cells to the killing effects of DXR. […]
Results in FIG. 2A, closely recapitulate the reality of most clinical cancer treatments that are effective at first eliminating the bulk tumor but that are become ineffective when the disease recur. […] Three months after implantation, metastases were clearly detected by luciferin-induced bioluminescence in the chest and head of most mice FIG. 2B. […]

[15] = test system: PY230 murine mammary tumor cells; assay: proliferation of PY230 cells under doxorubicin; type: cell-based; details: DXR 250 nM, within a few hours from application
Method: as §4, with “DXR. FIG. 2B is a collection of images showing mammary xenografts of luciferase-labeled transformed MCF10A constitutively expressing NLS-catalase under an inducible promoter rapidly grow and metastasize within 3 months of implantation.” for “DXR.”
Nuclear ROS are sufficient and required to activate EMT and metastasis of breast cancer cells. ROS levels were measured in the nuclei of different breast cancer cell lines displaying vastly different tumorigenicity and metastatic potential using novel NLS-Orp1roGFP2 biosensors. […]

Q: With `CC(=O)O[C@H]1C(=O)[C@@]2(C)[C@H]([C@H](OC(=O)c3ccccc3)[C@]3(O)C[C@H](OC(=O)[C@H](O)[C@@H](NC(=O)c4ccccc4)c4ccccc4)C(C)=C1C3(C)C)[C@]1(OC(C)=O)CO[C@@H]1C[C@@H]2O` [Paclitaxel] as the compound, how does the “chromatin folding (structural alterations)” value (“chromatin folding” below) [1] read?
A: increases

Q: Which EMT markers [2] does the source give for `C[C@@H](N)C(=O)O` [D-Ala] here?
A: increased

Q: For `O=[N+]([O-])c1ccc(O)c([N+](=O)[O-])c1` [DNP, 2,4-dinitrophenol], which “inhibition of ion channels” value [3] is on record?
A: no inhibition

Q: What about the “levels of nuclear ROS (ox/red Orp1roGFP2 ratio)” value [4] of the same compound?
A: strongly suppresses; also recorded: clear concentration dependence of nROS reduction

Q: And the “inhibition of CYP” value [5]?
A: no inhibition

Q: What about the “Safety Index” value ([6]; 28-day toxicity studies) of the same compound?
A: ≥ 10 ×

Q: And the toxicity ([6]; 28-day)?
A: not toxic

Q: And the “reduction of cerebral infarct volume” value [7]?
A: 40%

Q: And the distribution [8]?
A: good

Q: What about the oral bioavailability [8] of the same compound?
A: orally bioavailable

Q: And the half-life ([8]; rat, plasma)?
A: ~6 h

Q: And the “levels of nuclear ROS (ox/red Orp1roGFP2 ratio)” value [9]?
A: strongly suppresses; also recorded: clear concentration dependence of nROS reduction

Q: What about the “lifespan versus untreated mice” value [10] of the same compound?
A: living longer than untreated mice

Q: And the cognition and learning [11]?
A: improve

Q: What about the “inhibition, Caco-2” value [12] of the same compound?
A: no inhibition

Q: And the safety [13]?
A: safe

Q: Which “metastatic disease and primary tumor (bioluminescence)” value [14] does the source give for `COc1cccc2c1C(=O)c1c(O)c3c(c(O)c1C2=O)C[C@@](O)(C(=O)CO)C[C@@H]3O[C@H]1C[C@H](N)[C@H](O)[C@H](C)O1` [doxorubicin] here?
A: complete remission of metastatic disease as well as significant regression of primary tumor

Q: And the “effect on cell population (proliferation)” value [15]?
A: eliminated the bulk of cells

Q: Which “chromatin folding” value [1] does the source give for `CC(=O)O[C@@]12CO[C@@H]1C[C@H](O)[C@@]1(C)C(=O)[C@H](O)C3=C(C)[C@@H](OC(=O)[C@H](O)[C@@H](NC(=O)OC(C)(C)C)c4ccccc4)C[C@@](O)([C@@H](OC(=O)c4ccccc4)[C@H]21)C3(C)C` [Docetaxel] here?
A: increases

Q: Which “chromatin folding” value [1] does the source give for `C[C@H]1O[C@@H](O[C@H]2[C@@H](O)C[C@H](O[C@H]3[C@@H](O)C[C@H](O[C@H]4CC[C@@]5(C)[C@H](CC[C@@H]6[C@@H]5C[C@@H](O)[C@]5(C)[C@@H](C7=CC(=O)OC7)CC[C@]65O)C4)O[C@@H]3C)O[C@@H]2C)C[C@H](O)[C@@H]1O` [digoxin] here?
A: decreases

Q: What about the “chromatin heterogeneity, live cell PWS” value ([1]; FIG. 5D) of the same compound?
A: reduces
